Results on twelve compounds are retold here after publication PMC10490044, “Chromogenic Assay Is More Efficient in Identifying α-Amylase Inhibitory Properties of Anthocyanin-Rich Samples When Compared to the 3,5-Dinitrosalicylic Acid (DNS) Assay” (Molecules, 2023).

Values after ≈ are worked out from the molar mass of the structure shown. Where two headings read alike, the source gives them in different places.

For one test, the target named is pancreatic alpha-amylase. The following applies: cited from earlier work.
Another test addresses human pancreatic amylase. On the set-up: method as in Xie et al. 28. The following applies: similar substrate; ref Xie et al. 28; cited from earlier work.
The target of test [1] is T1, pancreatic α-amylase (PPA) (Sus scrofa, UniProt P00690).
T1 construct: purchased Sigma-Aldrich Co., Ltd., Dorset, UK
T1 sequence (P00690 16-511): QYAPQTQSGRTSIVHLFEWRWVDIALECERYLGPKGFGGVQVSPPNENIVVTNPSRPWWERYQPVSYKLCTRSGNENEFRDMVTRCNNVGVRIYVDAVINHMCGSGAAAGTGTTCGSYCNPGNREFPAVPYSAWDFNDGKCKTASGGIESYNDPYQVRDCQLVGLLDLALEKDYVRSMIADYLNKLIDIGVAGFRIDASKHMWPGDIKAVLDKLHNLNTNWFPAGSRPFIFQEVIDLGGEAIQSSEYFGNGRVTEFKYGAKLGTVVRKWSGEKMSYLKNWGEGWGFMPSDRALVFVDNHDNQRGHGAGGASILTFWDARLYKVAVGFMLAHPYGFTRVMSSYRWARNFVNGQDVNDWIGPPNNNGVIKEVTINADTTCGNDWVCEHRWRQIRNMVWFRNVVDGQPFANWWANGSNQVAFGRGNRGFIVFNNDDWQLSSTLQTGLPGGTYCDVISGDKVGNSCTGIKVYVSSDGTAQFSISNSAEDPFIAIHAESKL
Nature of the test: Mode of inhibition / enzyme kinetics, Lineweaver–Burk plots with CNPG3. It counts as biochemical, porcine. The following applies: for mode of inhibition: CNPG3 0–5 mM, PPA 1 U/mL; for effect of inhibitor on Vmax: Lineweaver–Burk plot. As for the experimental part:
(§1) In preliminary experiments, the optimum enzyme and substrate concentrations for the assay were determined using different concentrations of α-amylase (0.25, 0.5, and 1 U/mL) and CNPG3 (0, 0.625, 1.25, 2.5, and 5 mM). The linearity of enzyme reaction was monitored over 20 min under optimized enzyme and substrate concentrations, and incubation time for enzymatic reaction was defined. […] The rate of enzymatic reaction (V) was calculated by dividing the change in absorbance (at 405 nm) over time. The Lineweaver–Burk double reciprocal plot was obtained by plotting the 1/V against reciprocal of substrate (1/[S]), and Km and Vmax were calculated.
A Lineweaver–Burk plot was constructed for every inhibitor, and Km and Vmax were calculated.
All experiments were conducted at least in triplicates and analysed using Prism software program v. 9 (GraphPad Software, San Diego, CA, USA). […] The IC50 values were then obtained from the respective curve. The mode of enzyme inhibition was graphically determined using the Lineweaver–Burk plot through nonlinear regression of all data sets at once using GraphPad Prism software.

The target in test [2] is T2, porcine pancreatic α-amylase (PPA) (Sus scrofa, UniProt P00690).
T2 construct: purchased Sigma-Aldrich Co., Ltd., Dorset, UK
T2 sequence (P00690 16-511): T1 sequence (P00690 16-511)
The following applies: cited from earlier work; for mode of inhibition: DNS method; for IC50: ref Sui, Zhang, and Zhou 35.

Another test addresses human salivary amylase. The following applies: reference not given; cited from earlier work.
The target in another test is T3, α-amylase (Sus scrofa, UniProt P00690).
T3 construct: purchased Sigma-Aldrich Co., Ltd., Dorset, UK
T3 sequence (P00690 16-511): T1 sequence (P00690 16-511)
Description: α-Amylase inhibition by anthocyanin metabolites (assay not stated). It counts as biochemical. As to conditions: high concentrations of 1000 μg/mL.

The target of test [3] is T2, porcine pancreatic α-amylase (PPA). Description: Direct chromogenic assay, CNPG3 as substrate. It counts as biochemical. As for the experimental part:
The inhibition of α-amylase activity was measured according to the method described by Kalita, Holm, LaBarbera, Petrash, and Jayanty with some modifications. […] This was followed by the addition of 50 µL of 2 mM CNPG3 substrate, diluted in phosphate buffer. The change in absorbance, indicating the release of p-nitrophenol as a reaction product, was recorded in 1 min intervals at 405 nm over a 10 min period (at 37 °C) using a Tecan Spark 10 M microplate reader. Reaction product scans (360–600 nm) were performed at the end of each experiment. Enzyme activity and inhibition (%) were calculated from the absorbance difference of each sample, in reference to the non-inhibited control.
as §1

Test [4] has the same target. Nature of the test: DNS assay, amylose as substrate. As to conditions: concentrations up to 435 μM. It counts as biochemical.
Description: The samples were then placed in a water bath (100 °C, 10 min) to stop the enzyme reaction, subsequently transferred to ice, cooled down, and centrifuged at 4000× g for 5 min.
In order to remove potentially interfering compounds such as anthocyanins and other polyphenols that might react with the DNS reagent, solid phase reaction (SPE) was applied [20]. Briefly, Oasis MAX cartridges (30 mg) were preconditioned (1 mL water, 1 mL methanol) and then dried under vacuum for 10 min. The samples that underwent the enzymatic reaction above were applied to the cartridge, and the flow through was collected. Then, 1 mL DNS reagent was added to each SPE-purified flow through sample (500 μL), and samples were heated for 10 min at 100 °C to aid the reaction. Subsequently, samples were cooled down to room temperature, diluted to an appropriate absorbance range, transferred to wells in 96-well plates (2 × 250 µL per sample), and absorbance was recorded at 540 nm using Tecan Spark 10 M multimode microplate reader (TECAN, Mannedorf, Switzerland). Enzyme inhibition was calculated as a percentage of the 100% activity control (absence of inhibitor) and considering individual sample background (absence of enzyme and substrate).
Where [5] appears, read: extracts per total anthocyanin content.

`C[C@H]1O[C@H](O[C@H]2[C@H](O)[C@@H](O)[C@@H](O[C@H]3[C@H](O)[C@@H](O)C(O)O[C@@H]3CO)O[C@@H]2CO)[C@H](O)[C@@H](O)[C@@H]1N[C@H]1C=C(CO)[C@@H](O)[C@H](O)[C@H]1O` (stereo partly shown) [acarbose]: the “IC50, DNS assay” value at pancreatic alpha-amylase (ref 15) is listed as 11.7 µg/mL (≈ 18.1 µM); at pancreatic alpha-amylase (ref 27) it was 77.5 µg/mL (≈ 120 µM). For the same compound, at human pancreatic amylase, the “IC50, human pancreatic amylase” value was 0.47 µg/mL (≈ 0.728 µM). Besides, the mode of inhibition entry in test [1] was “uncompetitive enzyme inhibition”. Also, the “effect of inhibitor on Vmax” value in test [1] was “decreased”.

In general, IC50 refers to the point on the concentration scale where inhibition reaches its midpoint. Consider `OC[C@H]1O[C@@H](Oc2cc3c(O)cc(O)cc3[o+]c2-c2ccc(O)c(O)c2)[C@H](O)[C@@H](O)[C@@H]1O` [cyanidin-3-glucoside], for which the “IC50, DNS assay” value at pancreatic alpha-amylase (ref 27) is 145.5 µg/mL. Also, in test [2], the mode of inhibition result is on record as “competitively” and the IC50 was 24 ± 3 µM. Besides, the IC50 at human salivary amylase is 180 ± 20 µM.

Consider `O=C(O)c1cc(O)c(O)c(O)c1` [gallic acid], for which the “inhibition of α-amylase” value on α-amylase is reported as “unable to determine inhibition”.

For `C[C@@H]1O[C@@H](OC[C@H]2O[C@@H](Oc3cc4c(O)cc(O)cc4[o+]c3-c3ccc(O)c(O)c3)[C@H](O)[C@@H](O)[C@@H]2O)[C@H](O)[C@H](O)[C@H]1O` [cyanidin-3-rutinoside], on pancreatic alpha-amylase (ref 15, read-out: IC50, α-amylase), the IC50 was 24.4 µM. In test [2], the mode of inhibition result was “competitively”.

For the compound `OC[C@H]1O[C@@H](Oc2cc3c(O[C@@H]4O[C@H](CO)[C@@H](O)[C@H](O)[C@H]4O)cc(O)cc3[o+]c2-c2ccc(O)c(O)c2)[C@H](O)[C@@H](O)[C@@H]1O` [cyanidin-3,5-diglucoside], the “IC50, DNS assay” value on pancreatic alpha-amylase (ref 27) is more than 600 µg/mL. For the same compound, the mode of inhibition result in test [2] is “competitively”.

Regarding `O=[N+]([O-])c1ccc(O[C@H]2O[C@H](CO)[C@@H](O[C@H]3O[C@H](CO)[C@@H](O[C@H]4O[C@H](CO)[C@@H](O)[C@H](O)[C@H]4O)[C@H](O)[C@H]3O)[C@H](O)[C@H]2O)c(Cl)c1` [CNPG3, 2-chloro-4 nitrophenyl α-D-maltotrioside], the “Km value (Michaelis constant) of substrate” value in test [1] (no inhibitor) is recorded as 4.4 mg/mL.

Regarding `O=C(O)c1ccc(O)c(O)c1` [protocatechuic acid], the “inhibition of α-amylase” value at α-amylase is recorded as “unable to determine inhibition”.

Turning to `COc1cc(-c2[o+]c3cc(O)cc(O)c3cc2O[C@@H]2O[C@H](CO)[C@@H](O)[C@H](O)[C@H]2O)ccc1O` [peonidin-3-glucoside], in test [2], the mode of inhibition entry is “competitively” and the IC50 was 75 ± 7 µM.

`O=C(/C=C/c1ccc(O)c(O)c1)O[C@@H]1C[C@](O)(C(=O)O)C[C@@H](O)[C@H]1O` [chlorogenic acid]: the “inhibition of α-amylase” value at α-amylase was “unable to determine inhibition”.

For `OC[C@H]1O[C@@H](Oc2cc3c(O)cc(O)cc3[o+]c2-c2ccc(O)c(O)c2)[C@H](O)[C@@H](O)[C@H]1O` [Cyanidin-3-O-galactopyranoside], in test [1], the mode of inhibition entry is on record as “competitive inhibitor” and the “effect of inhibitor on Vmax” value is on record as “remained constant”. In test [3], the IC50 was 414 µM. Besides, in test [3] (setting [5]), the “Direct Chromogenic Assay IC50” value is 414 ± 2.6 µg/mL.

`Oc1cc(O)c2cc(O)c(-c3ccc(O)c(O)c3)[o+]c2c1` [Cyanidin, cyanidin]: the “IC50, DNS assay” value at pancreatic alpha-amylase (ref 27) was 109.2 µg/mL. The IC50 in test [3] and in test [3] (setting [5]) was 491 µM each time. Besides, the “DNS Assay % inhibition” value in test [4] was 7%.

Take `COc1cc(-c2[o+]c3cc(O)cc(O)c3cc2O[C@@H]2O[C@H](CO)[C@@H](O)[C@H](O)[C@H]2O)cc(OC)c1O` [malvidin-3-glucoside]: at human salivary amylase, the IC50 is 675 ± 73 µM.
